Experimental findings from the OligoGym collection are described below.

“And” between values parts separate entries of the source, which are not always exact repeats. Equal values may be shown once. After the bases stand the sugars from the 5' end (letter, count) and the backbone: PS all phosphorothioate, else s phosphorothioate and o phosphodiester by linkage. Methylation of C is not given here. e = 2'-O-(2-methoxyethyl) (MOE); d = 2'-deoxy (DNA)

This series concerns the target DGAT2. As to conditions: ASO.

For “CCTCCAGGACCTCAGTCTCC (sugars e5 d10 e5, PS)”, the target mRNA inhibition (HepG2, 0.12 µM) stood at 66%.
With “CAGCTGTGATGACTTCCCAG (sugars e5 d10 e5, PS)”, the target mRNA inhibition runs as follows: (HepG2, 2.5 µM) 49%; (HepG2, 10 µM) 81%.
Regarding “AACTTAGGCATGCTTCCTCC (sugars e5 d10 e5, PS)”, the target mRNA inhibition (HepG2, 2.5 µM) was 44% and the target mRNA inhibition (HepG2, 10 µM) was found to be 89%.
For the setting “HepG2, 0.12 µM”, “TAATCTGCTGCTCAGAAGGC (sugars e5 d10 e5, PS)” yielded a target mRNA inhibition of 36%.
Regarding “CACACAGCCCAGTTTCGGAC (sugars e5 d10 e5, PS)”, the target mRNA inhibition (HepG2, 0.12 µM) amounted to 24%.
As to “AAATCACAGAATTATCAGCA (sugars e5 d10 e5, PS)”, the target mRNA inhibition turned out to be 57% (HepG2, 2.5 µM) and 92% (HepG2, 10 µM).
For the sequence “CTCAGAGACTCAGCCGCACC (sugars e5 d10 e5, PS)”, the target mRNA inhibition (HepG2, 0.12 µM) is 80%; the target mRNA inhibition (HepG2, 2.5 µM) was 30%; the target mRNA inhibition (HepG2, 10 µM) worked out at 91%; the target mRNA inhibition (HepG2, 20 µM) worked out at 54%.
In turn, “CAGCTAATGATACAAGGTTG (sugars e5 d10 e5, PS)” had a target mRNA inhibition (HepG2, 0.12 µM) of 55%.
Sequence “AGTTTCACAAAGCCCTTGCG (sugars e5 d10 e5, PS)” had a target mRNA inhibition (HepG2, 0.12 µM) of 25%.
For “GAGTAGGGCACCAGCCCCCA (sugars e5 d10 e5, PS)”, for the setting “HepG2, 0.12 µM”, the target mRNA inhibition was 0%.
Take “ACCACAGCGATAATCACACA (sugars e5 d10 e5, PS)”: the target mRNA inhibition was 54% (HepG2, 2.5 µM) and 89% (HepG2, 10 µM).
With “CCTCAGGAAGGCACAGAAAA (sugars e5 d10 e5, PS)”, where the note is “HepG2, 0.12 µM”, the target mRNA inhibition was found to be 40%.
Same read-out and setting: as for “GCTATTCATTTTTCTGAGCC (sugars e5 d10 e5, PS)”, the figure is 47%.
With “ATGACCTTGGGTCAGAGGAA (sugars e5 d10 e5, PS)”, the target mRNA inhibition runs as follows: (HepG2, 2.5 µM) 61%; (HepG2, 10 µM) 46%.
Where the note is “HepG2, 0.12 µM”, “CACTGGAGCACTGAGATGAC (sugars e3 d14 e3, PS)” came in with a target mRNA inhibition of 55%.
“CCACCACCTAGAACAGGGCA (sugars e5 d10 e5, PS)” gave a target mRNA inhibition (HepG2, 0.12 µM) of 55%.
For the sequence “GCCACTCAGCCTTGGAGCCA (sugars e5 d10 e5, PS)”, the target mRNA inhibition runs as follows: (HepG2, 2.5 µM) 90% and 83%; (HepG2, 10 µM) 86% and 85%.
Regarding “CAGTTTCGGACCCACTGTGA (sugars e2 d13 e5, PS)”, where the note is “HepG2, 0.12 µM”, the target mRNA inhibition is 77%.
In turn, “CCCACTGGGACATCTGGCCC (sugars e5 d10 e5, PS)” registered a target mRNA inhibition (HepG2, 2.5 µM) of 66% and a target mRNA inhibition (HepG2, 10 µM) of 88%.
Take “GCGCAGGACCCCGGAGTAGG (sugars e3 d14 e3, PS)”: the target mRNA inhibition (HepG2, 0.12 µM) was 71%.
With “CACAATGGGAATGGTATCGC (sugars e5 d10 e5, PS)”, the target mRNA inhibition reads like this: (HepG2, 2.5 µM) 59%; (HepG2, 10 µM) 91%.
“AAAGCAAATAGTCTATGGTG (sugars e5 d10 e5, PS)” returned a target mRNA inhibition (HepG2, 0.12 µM) of 46%.
Take “CATTGCCACTCCCATTCTTT (sugars e2 d13 e5, PS)”: where the note is “HepG2, 0.12 µM”, the target mRNA inhibition came to 40%.
With “GACAGCTGTGATGACTTCCC (sugars e5 d10 e5, PS)”, the target mRNA inhibition is, setting by setting: (HepG2, 2.5 µM) 73%; (HepG2, 10 µM) 87%.
Consider “GTTTAGGCTATGGTCTGAGC (sugars e5 d10 e5, PS)”, for which the target mRNA inhibition is, setting by setting: (HepG2, 2.5 µM) 85% and 75%; (HepG2, 10 µM) 92%.
As to “TAATTTCTTTTAAATAACCC (sugars e5 d10 e5, PS)”, the target mRNA inhibition (HepG2, 0.12 µM) is 0%.
Take “TCTGATCAATTATTAACCTA (sugars e5 d10 e5, PS)”: the target mRNA inhibition runs as follows: (HepG2, 2.5 µM) 20%; (HepG2, 10 µM) 55%.
In turn, “AGACATCAGGTACTCCCTCA (sugars e5 d10 e5, PS)” registered a target mRNA inhibition (HepG2, 0.12 µM) of 35%.
The same measure, in the same setting: the value for “GACCCACTGTGACCTCCTGC (sugars e5 d10 e5, PS)” was 25%.
“TGGAGCTCAGAGACTCAGCC (sugars e2 d13 e5, PS)”: under “HepG2, 0.12 µM”, the target mRNA inhibition came out at 82%.
Regarding “CCTCTCCTGTTTGATGGGTA (sugars e5 d10 e5, PS)”, the target mRNA inhibition by setting is: (HepG2, 2.5 µM) 78% and 85% and 87%; (HepG2, 10 µM) 91% and 78% and 88%.
Turning to “GCTAGAGGCTGAGTTCTGCT (sugars e5 d10 e5, PS)”, the target mRNA inhibition reads like this: (HepG2, 2.5 µM) 85% and 87%; (HepG2, 10 µM) 90% and 92%.
For the setting “HepG2, 0.12 µM”, “GGATGGTGATGGGCTCTCCC (sugars e5 d10 e5, PS)” had a target mRNA inhibition of 67%.
With “GCAGCCTGGACAAGTCCTGC (sugars e3 d14 e3, PS)”, the target mRNA inhibition was 83% (HepG2, 0.12 µM); 48% and 59% (HepG2, 2.5 µM); 73% (HepG2, 10 µM); 81% (HepG2, 20 µM).
For “CCTCCAGACATCAGGTACTC (sugars e5 d10 e5, PS)”, under “HepG2, 0.12 µM”, the target mRNA inhibition was found to be 29%.
On to “AGTAAGCCTCGGTGTCCTCT (sugars e5 d10 e5, PS)”, for which the target mRNA inhibition by setting is: (HepG2, 2.5 µM) 61% and 76% and 75%; (HepG2, 10 µM) 92% and 91% and 95%.
Regarding “CCGGACTGAATGTCACC (sugars e3 d10 e4, PS)”, for the setting “HepG2, 2.5 µM”, the target mRNA inhibition was 79% and 82%.
Sequence “ACCCCGGAGTAGGCGGCTAT (sugars e5 d10 e5, PS)” displayed a target mRNA inhibition (HepG2, 0.12 µM) of 46%.
“CACTTGATCTGGGACCCAAA (sugars e5 d10 e5, PS)” yielded a target mRNA inhibition (HepG2, 2.5 µM) of 41% and a target mRNA inhibition (HepG2, 10 µM) of 92%.
Turning to “GTGCTTTCTAAGTACCCTTT (sugars e5 d10 e5, PS)”, the target mRNA inhibition is 81% and 78% (HepG2, 2.5 µM); 92% and 89% (HepG2, 10 µM).
“GTAAGCCTCGGTGTCCTCTC (sugars e5 d10 e5, PS)”: the target mRNA inhibition (HepG2, 2.5 µM) is 91% and the target mRNA inhibition (HepG2, 10 µM) stood at 85%.
Take “AGGCACCTGTTACTACATGT (sugars e5 d10 e5, PS)”: the target mRNA inhibition was 78% (HepG2, 2.5 µM); 93% and 91% (HepG2, 10 µM).
Regarding “GCGACAGCCCTGTGCCAGCC (sugars e5 d10 e5, PS)”, the target mRNA inhibition is 72% (HepG2, 2.5 µM) and 99% (HepG2, 10 µM).
Consider “AACTTCTTCTGGACCCATCG (sugars e5 d10 e5, PS)”, for which the target mRNA inhibition (HepG2, 0.12 µM) worked out at 28%.
In turn, “CTTCACCAGCTGGATGGGAA (sugars e5 d10 e5, PS)” had a target mRNA inhibition (HepG2, 0.12 µM) of 36%.
Regarding “TCCAAGTGTACTTTGAGCAT (sugars e5 d10 e5, PS)”, the target mRNA inhibition is 58% and 54% (HepG2, 2.5 µM); 84% and 91% (HepG2, 10 µM).
For the sequence “CAAGGATGACCTTGGGTCAG (sugars e5 d10 e5, PS)”, the target mRNA inhibition runs as follows: (HepG2, 2.5 µM) 18%; (HepG2, 10 µM) 44%.
Take “GCCACAGGGCCCTTTCCAGA (sugars e5 d10 e5, PS)”: the target mRNA inhibition is, setting by setting: (HepG2, 2.5 µM) 68%; (HepG2, 10 µM) 92%.
In the same order, the values of “CCATGTCAGAGAGGCTCAGC (sugars e5 d10 e5, PS)” are 45% and 86%.
Regarding “TCCATGTCAGAGAGGCTCAG (sugars e5 d10 e5, PS)”, the target mRNA inhibition is, setting by setting: (HepG2, 2.5 µM) 54%; (HepG2, 10 µM) 91%.
Where the note is “HepG2, 0.12 µM”, “CAGCTGGATGGGAAAGTAGT (sugars e5 d10 e5, PS)” displayed a target mRNA inhibition of 21%.
On to “AAAAGGAGTTTGTGTTTCCC (sugars e5 d10 e5, PS)”, for which the target mRNA inhibition was 84% and 86% (HepG2, 2.5 µM); 92% and 95% (HepG2, 10 µM).
As for “GTTTGCTCAGTTCTTCCAAC (sugars e5 d10 e5, PS)”, the target mRNA inhibition was 83% and 78% (HepG2, 2.5 µM); 94% and 90% (HepG2, 10 µM).
On to “GACAGGACCCACTGGAGCAC (sugars e3 d14 e3, PS)”, for which the target mRNA inhibition (HepG2, 0.12 µM) was determined as 58%.
“GTGGGAAAGGCACAGGCTTT (sugars e5 d10 e5, PS)” yielded a target mRNA inhibition (HepG2, 0.12 µM) of 53%.
“GACAAGCGACAGCCCTGTGC (sugars e5 d10 e5, PS)”: the target mRNA inhibition was found to be 75% (HepG2, 2.5 µM) and 79% (HepG2, 10 µM).
In the same order, the values of “TGTGACCTTGGGATAGTCCC (sugars e5 d10 e5, PS)” are 63% and 87%.
On to “ATCCAGAGACTGAATTCTAG (sugars e5 d10 e5, PS)”, for which the target mRNA inhibition is 61% (HepG2, 2.5 µM) and 88% (HepG2, 10 µM).
For “AAAACAGGGTACAACTCTCT (sugars e5 d10 e5, PS)”, the target mRNA inhibition runs as follows: (HepG2, 2.5 µM) 73% and 59%; (HepG2, 10 µM) 91% and 87%.
As to “GTGGTTGCAATGTTGCC (sugars e3 d10 e4, PS)”, the target mRNA inhibition reads like this: (HepG2, 2.5 µM) 67% and 80%; (HepG2, 10 µM) 88% and 94%.
As to “TTTAGGCTATGGTCTGAGCA (sugars e5 d10 e5, PS)”, the target mRNA inhibition by setting is: (HepG2, 2.5 µM) 68% and 55%; (HepG2, 10 µM) 85% and 78%.
On to “CTGGTCCAGGGAGAGACCAA (sugars e5 d10 e5, PS)”, for which the target mRNA inhibition (HepG2, 0.12 µM) amounted to 25%.
Take “GTGGTCTGGGAACAGCAGCA (sugars e5 d10 e5, PS)”: the target mRNA inhibition was 72% and 61% (HepG2, 2.5 µM); 66% and 72% (HepG2, 10 µM).
“AAGGGTATTCTGCTCATAAA (sugars e5 d10 e5, PS)”: the target mRNA inhibition worked out at 48% (HepG2, 2.5 µM) and 88% (HepG2, 10 µM).
For “CCTTAGCTTTAATCCAGGAT (sugars e5 d10 e5, PS)” the same measures were 70% and 89%.
“GGTGATGGGCTTGGAGTAGG (sugars e5 d10 e5, PS)” registered a target mRNA inhibition (HepG2, 0.12 µM) of 36%.
In the case of “TGCCATTTAATGAGCTTCAC (sugars e5 d10 e5, PS)”, the target mRNA inhibition is 79% and 81% (HepG2, 2.5 µM); 91% and 92% (HepG2, 10 µM).
Regarding “CCAATGCCTAGGTCACA (sugars e3 d10 e4, PS)”, the target mRNA inhibition was 61% (HepG2, 2.5 µM) and 83% (HepG2, 10 µM).
“GAGCTCAGAGACTCAGCCGC (sugars e2 d13 e5, PS)”: the target mRNA inhibition was 89% (HepG2, 0.12 µM); 27% (HepG2, 2.5 µM); 42% (HepG2, 10 µM); 61% (HepG2, 20 µM).
As for “AGTCTTCCTTCTCCTCCACC (sugars e5 d10 e5, PS)”, the target mRNA inhibition was 69% (HepG2, 2.5 µM) and 84% (HepG2, 10 µM).
For the sequence “AAGCCTCGGTGTCCTCT (sugars e3 d10 e4, PS)”, the target mRNA inhibition (HepG2, 2.5 µM) is 56% and 70%; the target mRNA inhibition (HepG2, 10 µM) is 87% and 90%.
As to “CTGTGGCACTAAGCTAGGCA (sugars e5 d10 e5, PS)”, the target mRNA inhibition by setting is: (HepG2, 2.5 µM) 64%; (HepG2, 10 µM) 82%.
